Results from patent publication US8268840B2, “Pyrimidinyl pyridone inhibitors of kinases” (Roche Palo Alto LLC, priority 2008, dated 2012).

Work on `CC(=O)N1CCC(Nc2ncc3c(N)cc(=O)n([C@@H]4CC[C@@H](O)C4)c3n2)CC1` (racemic) [Compound I-37, 2-(1-Acetyl-piperidin-4-ylamino)-5-amino-8-((1R,3R)-3-hydroxy-cyclopentyl)-8H-pyrido[2,3-d]pyrimidin-7-one] yielded a melting point of 192 to 194 °C.
Work on `Cc1c(N)c2cnc(N[C@@H]3CCCC[C@@H]3C)nc2n(C2CCC2)c1=O` (racemic) [Compound I-58, 5-Amino-8-cyclobutyl-6-methyl-2-((1R,2S)-2-methyl-cyclohexylamino)-8H-pyrido[2,3-d]pyrimidin-7-one] yielded a melting point of 160 to 161 °C.
`Cc1c(N)c2cnc(N[C@H]3CCCC[C@@H]3C)nc2n(C2CCC2)c1=O` (racemic) [Compound I-60, 5-Amino-8-cyclobutyl-6-methyl-2-((1S,2S)-2-methyl-cyclohexylamino)-8H-pyrido[2,3-d]pyrimidin-7-one] gave a melting point of 209 to 210 °C.
Work on `COC(=O)N[C@H]1CC[C@H](Nc2ncc3c(N)cc(=O)n(C4CCC4)c3n2)CC1` [Compound I-2, [4-(5-Amino-8-cyclobutyl-7-oxo-7,8-dihydro-pyrido[2,3-d]pyrimidin-2-ylamino)-cyclohexyl]-carbamic acid methyl ester] yielded a melting point of 154.3 to 156 °C.
Work on `Nc1c(F)c(=O)n(C2CCC2)c2nc(NC3CCCCC3)ncc12` [Compound I-4, 5-Amino-8-cyclobutyl-2-cyclohexylamino-6-fluoro-8H-pyrido[2,3-d]pyrimidin-7-one] yielded a melting point of 286 to 287 °C.
Work on `Nc1cc(=O)n(C2CCCCC2)c2nc(N[C@H]3CC[C@H](O)CC3)ncc12` [Compound I-6, 5-Amino-8-cyclohexyl-2-(4-hydroxy-cyclohexylamino)-8H-pyrido[2,3-d]pyrimidin-7-one] yielded a melting point of 292 to 294 °C.
`Nc1cc(=O)n(CCCO)c2nc(NC3CCCCC3)ncc12` [Compound I-8, 5-Amino-2-cyclohexylamino-8-(3-hydroxy-propyl)-8H-pyrido[2,3-d]pyrimidin-7-one] gave a melting point of 131 to 132.5 °C.
Molecule `Cc1c(N)c2cnc(N[C@H]3CC[C@H](C(=O)N4CCOCC4)CC3)nc2n(C2CCCC2)c1=O` [Compound I-10, 5-Amino-8-cyclopentyl-6-methyl-2-[4-(morpholine-4-carbonyl)-cyclohexylamino]-8H-pyrido[2,3-d]pyrimidin-7-one] has a melting point of 186.8 to 188 °C.
Molecule `CC(=O)N[C@H]1CC[C@H](Nc2ncc3c(N)cc(=O)n(C4CCCC4)c3n2)CC1` [Compound I-11, N-[4-(5-Amino-8-cyclopentyl-7-oxo-7,8-dihydro-pyrido[2,3-d]pyrimidin-2-ylamino)-cyclohexyl]-acetamide] has a melting point of 172.6 to 176.6 °C.
Work on `Nc1cc(=O)n(CC2CC2)c2nc(NC3CCCCC3)ncc12` [Compound I-12, 5-Amino-2-cyclohexylamino-8-cyclopropylmethyl-8H-pyrido[2,3-d]pyrimidin-7-one] yielded a melting point of 133 to 135 °C.
In the case of `Nc1cc(=O)n(C2CCCC2)c2nc(N[C@H]3CC[C@H](C(=O)N4CCOCC4)CC3)ncc12` [Compound I-13, 5-Amino-8-cyclopentyl-2-[4-(morpholine-4-carbonyl)-cyclohexylamino]-8H-pyrido[2,3-d]pyrimidin-7-one], the melting point is reported as 292.5 to 295.3 °C.
With `CS(=O)(=O)N[C@H]1CC[C@H](Nc2ncc3c(N)cc(=O)n(C4CCCCC4)c3n2)CC1` [Compound I-14, N-[4-(5-Amino-8-cyclohexyl-7-oxo-7,8-dihydro-pyrido[2,3-d]pyrimidin-2-ylamino)-cyclohexyl]-methanesulfonamide] the melting point was greater than 300 °C.
Molecule `Cc1c(N)c2cnc(N[C@H]3CC[C@H](C(=O)N4CCC(O)CC4)CC3)nc2n(C2CCC2)c1=O` [Compound I-15, 5-Amino-8-cyclobutyl-2-[4-(4-hydroxy-piperidine-1-carbonyl)-cyclohexylamino]-6-methyl-8H-pyrido[2,3-d]pyrimidin-7-one] has a melting point of 191.5 to 193 °C.
In the case of `Nc1c(-c2ccccc2Cl)c(=O)n(C2CCC2)c2nc(NC3CCCCC3)ncc12` [Compound I-16, 5-Amino-6-(2-chloro-phenyl)-8-cyclobutyl-2-cyclohexylamino-8H-pyrido[2,3-d]pyrimidin-7-one], the melting point is reported as 175 to 176 °C.
With `Nc1cc(=O)n(C2CCCC2)c2nc(NC3CCCCC3)ncc12` [Compound I-17, 5-Amino-2-cyclohexylamino-8-cyclopentyl-8H-pyrido[2,3-d]pyrimidin-7-one] the melting point was 125 to 130 °C.
For `CC(=O)N[C@H]1CC[C@H](Nc2ncc3c(N)cc(=O)n([C@@H]4CC[C@@H](O)C4)c3n2)CC1` [Compound I-18, N-{4-[5-Amino-8-((1R,3R)-3-hydroxy-cyclopentyl)-7-oxo-7,8-dihydro-pyrido[2,3-d]pyrimidin-2-ylamino]-cyclohexyl}-acetamide], the melting point was 210 to 211.5 °C.
In the case of `COC(=O)N[C@H]1CC[C@H](Nc2ncc3c(N)cc(=O)n(C4CCCCC4)c3n2)CC1` [Compound I-19, [4-(5-Amino-8-cyclohexyl-7-oxo-7,8-dihydro-pyrido[2,3-d]pyrimidin-2-ylamino)-cyclohexyl]-carbamic acid methyl ester], the melting point is reported as 193.9 to 198 °C.
With `Cc1c(N)c2cnc(N[C@H]3CC[C@H](C(C)(C)O)CC3)nc2n(C2CCC2)c1=O` [Compound I-20, 5-Amino-8-cyclobutyl-2-[4-(1-hydroxy-1-methyl-ethyl)-cyclohexylamino]-6-methyl-8H-pyrido[2,3-d]pyrimidin-7-one] the melting point was 223 to 224.8 °C.
`CCn1c(=O)cc(N)c2cnc(NC3CCCCC3)nc21` [Compound I-21, 5-Amino-2-cyclohexylamino-8-ethyl-8H-pyrido[2,3-d]pyrimidin-7-one] showed a melting point of 147.7 to 150.1 °C.
`Nc1cc(=O)n(C2CC2)c2nc(N[C@H]3CC[C@H](O)CC3)ncc12` [Compound I-22, 5-Amino-8-cyclopropyl-2-(4-hydroxy-cyclohexylamino)-8H-pyrido[2,3-d]pyrimidin-7-one] gave a melting point of 256.3 to 258.7 °C.
`CCc1c(N)c2cnc(N[C@H]3CC[C@H](NC(C)=O)CC3)nc2n(C2CCCC2)c1=O` [Compound I-23, N-[4-(5-Amino-8-cyclopentyl-6-ethyl-7-oxo-7,8-dihydro-pyrido[2,3-d]pyrimidin-2-ylamino)-cyclohexyl]-acetamide] gave a melting point greater than 300 °C.
`Cc1c(N)c2cnc(N[C@H]3CC[C@H](N(C)S(C)(=O)=O)CC3)nc2n(C2CCC2)c1=O` [Compound I-24, N-[4-(5-Amino-8-cyclobutyl-6-methyl-7-oxo-7,8-dihydro-pyrido[2,3-d]pyrimidin-2-ylamino)-cyclohexyl]-N-methyl-methanesulfonamide] gave a melting point of 260 to 261 °C.
Work on `CC(C)c1c(N)c2cnc(N[C@H]3CC[C@H](C(=O)N4CCC(O)CC4)CC3)nc2n(C2CCC2)c1=O` [Compound I-25, 5-Amino-8-cyclobutyl-2-[4-(4-hydroxy-piperidine-1-carbonyl)-cyclohexylamino]-6-isopropyl-8H-pyrido[2,3-d]pyrimidin-7-one] yielded a melting point of 170 to 171 °C.
With `Nc1cc(=O)n(C2CC2)c2nc(NC3CCCCC3)ncc12` [Compound I-26, 5-Amino-2-cyclohexylamino-8-cyclopropyl-8H-pyrido[2,3-d]pyrimidin-7-one] the melting point was 117 to 118 °C.
In the case of `CS(=O)(=O)N1CCC(Nc2ncc3c(N)cc(=O)n(C4CCCCC4)c3n2)CC1` [Compound I-29, 5-Amino-8-cyclohexyl-2-(1-methanesulfonyl-piperidin-4-ylamino)-8H-pyrido[2,3-d]pyrimidin-7-one], the melting point is reported as 250 to 254 °C.
With `CC(=O)N1CCC(Nc2ncc3c(N)cc(=O)n(C4CCCC4)c3n2)CC1` [Compound I-30, 2-(1-Acetyl-piperidin-4-ylamino)-5-amino-8-cyclopentyl-8H-pyrido[2,3-d]pyrimidin-7-one] the melting point was 282 to 285 °C.
Molecule `Nc1c(-c2ccccc2)c(=O)n(C2CCC2)c2nc(NC3CCCCC3)ncc12` [Compound I-31, 5-Amino-8-cyclobutyl-2-cyclohexylamino-6-phenyl-8H-pyrido[2,3-d]pyrimidin-7-one] has a melting point of 160 to 161 °C.
With `Nc1cc(=O)n(C2CCCCC2)c2nc(NC3CCCCC3)ncc12` [Compound I-32, 5-Amino-8-cyclohexyl-2-cyclohexylamino-8H-pyrido[2,3-d]pyrimidin-7-one] the melting point was 243.1 to 244.9 °C.
Work on `Nc1cc(=O)n(C2CCCC2)c2nc(NC3CCOCC3)ncc12` [Compound I-33, 5-Amino-8-cyclopentyl-2-(tetrahydro-pyran-4-ylamino)-8H-pyrido[2,3-d]pyrimidin-7-one] yielded a melting point of 120 to 124 °C.
With `Cc1c(N)c2cnc(N[C@@H]3CCCC[C@H]3C)nc2n(C2CCC2)c1=O` [Compound I-34, 5-Amino-8-cyclobutyl-6-methyl-2-((1R,2R)-2-methyl-cyclohexylamino)-8H-pyrido[2,3-d]pyrimidin-7-one] the melting point was 209 to 210 °C.
`CCc1c(N)c2cnc(NC3CCCCC3)nc2n(C2CCCC2)c1=O` [Compound I-36, 5-Amino-2-cyclohexylamino-8-cyclopentyl-6-ethyl-8H-pyrido[2,3-d]pyrimidin-7-one] showed a melting point of 229.8 to 230.5 °C.
`N#Cc1c(N)c2cnc(N[C@H]3CC[C@H](C(=O)N4CCC(O)CC4)CC3)nc2n(C2CCC2)c1=O` [Compound I-38, 5-Amino-8-cyclobutyl-2-[4-(4-hydroxy-piperidine-1-carbonyl)-cyclohexylamino]-7-oxo-7,8-dihydro-pyrido[2,3-d]pyrimidine-6-carbonitrile] showed a melting point greater than 300 °C.
Molecule `COC(=O)N[C@H]1CC[C@H](Nc2ncc3c(N)cc(=O)n(C4CC4)c3n2)CC1` [Compound I-39, [4-(5-Amino-8-cyclopropyl-7-oxo-7,8-dihydro-pyrido[2,3-d]pyrimidin-2-ylamino)-cyclohexyl]-carbamic acid methyl ester] has a melting point of 257 to 259 °C.
`Cc1c(N)c2cnc(NC3CCN(S(C)(=O)=O)CC3)nc2n(C2CCC2)c1=O` [Compound I-40, 5-Amino-8-cyclobutyl-2-(1-methanesulfonyl-piperidin-4-ylamino)-6-methyl-8H-pyrido[2,3-d]pyrimidin-7-one] showed a melting point of 265.3 to 267 °C.
With `CC(=O)N[C@H]1CC[C@H](Nc2ncc3c(N)c(C)c(=O)n(C4CCCC4)c3n2)CC1` [Compound I-41, N-[4-(5-Amino-8-cyclopentyl-6-methyl-7-oxo-7,8-dihydro-pyrido[2,3-d]pyrimidin-2-ylamino)-cyclohexyl]-acetamide] the melting point was 296.2 to 298.2 °C.
